{"source": "patent US20030129629A1", "about": "“Methods and compositions for the identification, assessment, prevention, and therapy of human cancers” (Millennium Pharmaceuticals, Inc., priority 2000, published 2003)", "key": {"[1]": {"tested_on": "60 cancer cell lines (NCI 60 cancer cell line series)", "assay": "NCI-DTP in vitro cancer screen, sulforhodamine B (SRB) growth inhibition, 48 hour exposure", "format": "cell-based, human", "procedure,_shortened": "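Potency is given as mean −log{GI50} from dose–response curves, manually binned into Low, Medium or High sensitivity. Sixty NCI-DTP tumour lines were treated 48 h with a duplicate, five-dose, ten-fold dilution series, and growth read by SRB staining of cell mass.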"}, "[2]": {"tested_on": "60 cancer cell lines (NCI 60 cancer cell line series)", "details": "cited from earlier work"}}, "note": "Where two headings read alike, the source gives them in different places.", "data": [{"substance": "Bleomycin", "values": [{"measurement": "classification of cell line as Low(1), Medium(2), High(3) sensitivity to compound", "setting": "[1]; Breast MCF7(I) CL5001", "value": 2}, {"measurement": "classification of cell line as Low(1), Medium(2), High(3) sensitivity to compound", "setting": "[1]; Breast MCF7/ADRr CL5002", "value": 2}, {"measurement": "classification of cell line as Low(1), Medium(2), High(3) sensitivity to compound", "setting": "[1]; Breast MDA-MB-231 CL5005", "value": 1}, {"measurement": "classification of cell line as Low(1), Medium(2), High(3) sensitivity to compound", "setting": "[1]; Breast MDA-MB-435 CL5011", "value": 1}, {"measurement": "classification of cell line as Low(1), Medium(2), High(3) sensitivity to compound", "setting": "[1]; Breast MDA-N CL5012", "value": 1}, {"measurement": "classification of cell line as Low(1), Medium(2), High(3) sensitivity to compound", "setting": "[1]; Breast T-47D CL5014", "value": 2}, {"measurement": "classification of cell line as Low(1), Medium(2), High(3) sensitivity to compound", "setting": "[1]; CNS SF-268 CL12014", "value": 2}, {"measurement": "classification of cell line as Low(1), Medium(2), High(3) sensitivity to compound", "setting": "[1]; CNS SF-295 CL12015", "value": 3}, {"measurement": "classification of cell line as Low(1), Medium(2), High(3) sensitivity to compound", "setting": "[1]; CNS SF-539 CL12016", "value": 3}, {"measurement": "classification of cell line as Low(1), Medium(2), High(3) sensitivity to compound", "setting": "[1]; CNS SNB-19 CL12002", "value": 2}, {"measurement": "classification of cell line as Low(1), Medium(2), High(3) sensitivity to compound", "setting": "[1]; CNS SNB-75(I) CL12005", "value": 2}, {"measurement": "classification of cell line as Low(1), Medium(2), High(3) sensitivity to compound", "setting": "[1]; CNS U251(I) CL12009", "value": 2}, {"measurement": "classification of cell line as Low(1), Medium(2), High(3) sensitivity to compound", "setting": "[1]; Colon COLO-250 CL4010", "value": 2}, {"measurement": "classification of cell line as Low(1), Medium(2), High(3) sensitivity to compound", "setting": "[1]; Colon HCT-15 CL4015", "value": 2}, {"measurement": "classification of cell line as Low(1), Medium(2), High(3) sensitivity to compound", "setting": "[1]; Colon HCT-116 CL4003", "value": 2}, {"measurement": "classification of cell line as Low(1), Medium(2), High(3) sensitivity to compound", "setting": "[1]; Colon HT29(I) CL4001", "value": 1}, {"measurement": "classification of cell line as Low(1), Medium(2), High(3) sensitivity to compound", "setting": "[1]; Colon KM12 CL4017", "value": 1}, {"measurement": "classification of cell line as Low(1), Medium(2), High(3) sensitivity to compound", "setting": "[1]; Colon SW-620 CL4009", "value": 2}, {"measurement": "classification of cell line as Low(1), Medium(2), High(3) sensitivity to compound", "setting": "[1]; Leukemia CCRF-CEM(I) CL7003", "value": 2}, {"measurement": "classification of cell line as Low(1), Medium(2), High(3) sensitivity to compound", "setting": "[1]; Leukemia HL-60(I) CL7008", "value": 2}, {"measurement": "classification of cell line as Low(1), Medium(2), High(3) sensitivity to compound", "setting": "[1]; Leukemia K562(I) CL7005", "value": 2}, {"measurement": "classification of cell line as Low(1), Medium(2), High(3) sensitivity to compound", "setting": "[1]; Leukemia MOLT-4 CL7006", "value": 2}, {"measurement": "classification of cell line as Low(1), Medium(2), High(3) sensitivity to compound", "setting": "[1]; Leukemia SR CL7019", "value": 3}, {"measurement": "classification of cell line as Low(1), Medium(2), High(3) sensitivity to compound", "setting": "[1]; Melanoma LOX IMVI CL10001", "value": 3}, {"measurement": "classification of cell line as Low(1), Medium(2), High(3) sensitivity to compound", "setting": "[1]; Melanoma M14 CL10014", "value": 2}, {"measurement": "classification of cell line as Low(1), Medium(2), High(3) sensitivity to compound", "setting": "[1]; Melanoma MALME-3M CL10002", "value": 2}, {"measurement": "classification of cell line as Low(1), Medium(2), High(3) sensitivity to compound", "setting": "[1]; Melanoma SK-MEL-2 CL10005", "value": 1}, {"measurement": "classification of cell line as Low(1), Medium(2), High(3) sensitivity to compound", "setting": "[1]; Melanoma SK-MEL-28 CL10008", "value": 1}, {"measurement": "sensitivity classification Low(1)/Medium(2)/High(3)", "setting": "[1]; NSCLC NCI-H23(I) CL1001", "value": 2}, {"measurement": "sensitivity classification Low(1)/Medium(2)/High(3)", "setting": "[1]; NSCLC NCI-H332M CL1017", "value": 1}, {"measurement": "sensitivity classification Low(1)/Medium(2)/High(3)", "setting": "[1]; NSCLC NCI-H522 CL1003", "value": 2}, {"measurement": "sensitivity classification Low(1)/Medium(2)/High(3)", "setting": "[1]; Ovarian IGROV1 CL6010", "value": 2}, {"measurement": "sensitivity classification Low(1)/Medium(2)/High(3)", "setting": "[1]; Ovarian OVCAR-3 CL6001", "value": 2}, {"measurement": "sensitivity classification Low(1)/Medium(2)/High(3)", "setting": "[1]; Ovarian OVCAR-4 CL6002", "value": 2}, {"measurement": "sensitivity classification Low(1)/Medium(2)/High(3)", "setting": "[1]; Ovarian OVCAR-5 CL6003", "value": 2}, {"measurement": "sensitivity classification Low(1)/Medium(2)/High(3)", "setting": "[1]; Ovarian OVCAR-8 CL6005", "value": 2}, {"measurement": "sensitivity classification Low(1)/Medium(2)/High(3)", "setting": "[1]; Ovarian SK-OV-3 CL6011", "value": 2}, {"measurement": "sensitivity classification Low(1)/Medium(2)/High(3)", "setting": "[1]; Prostate DU-145 CL11003", "value": 2}, {"measurement": "sensitivity classification Low(1)/Medium(2)/High(3)", "setting": "[1]; Prostate PC-3(I) CL11001", "value": 2}, {"measurement": "sensitivity classification Low(1)/Medium(2)/High(3)", "setting": "[1]; Renal 786-0 CL9018", "value": 2}, {"measurement": "sensitivity classification Low(1)/Medium(2)/High(3)", "setting": "[1]; Renal A498 CL9013", "value": 2}, {"measurement": "sensitivity classification Low(1)/Medium(2)/High(3)", "setting": "[1]; Renal ACHN CL9023", "value": 3}, {"measurement": "sensitivity classification Low(1)/Medium(2)/High(3)", "setting": "[1]; Renal SN12C CL9008", "value": 2}, {"measurement": "sensitivity classification Low(1)/Medium(2)/High(3)", "setting": "[1]; Renal TK10 CL9024", "value": 1}, {"measurement": "−Log (GI50)", "setting": "[2]; CNS SF-539 CL12016", "value": 7.7}, {"measurement": "−Log (GI50)", "setting": "[2]; Melanoma LOX IMVI CL10001", "value": 6.8}, {"measurement": "−Log (GI50)", "setting": "[2]; Ovarian OVCAR-3 CL6001", "value": 5.3}]}]}
